Reference: US10562898B2, “Substituted benzenesulfonamides as inhibitors of alpha-4 beta-7 integrin activity” (EA PHARMA CO., LTD., priority 2016, dated 2020)

target: T1, α4β7 integrin (Homo sapiens, UniProt P13612+P26010); assay: MAdCAM-1/α4β7 integrin binding inhibitory activity evaluation test (RPMI-8866 cells binding to MAdCAM-1/Fc); format: cell-based; settings: recombinant mouse MAdCAM-1/Fc, no serum
T1 construct: a cell line RPMI-8866, which is known to express α4β7 integrin; endogenous in cells; host or cells: RPMI-8866 (human B cell line)
T1 sequence (P13612 34-1032): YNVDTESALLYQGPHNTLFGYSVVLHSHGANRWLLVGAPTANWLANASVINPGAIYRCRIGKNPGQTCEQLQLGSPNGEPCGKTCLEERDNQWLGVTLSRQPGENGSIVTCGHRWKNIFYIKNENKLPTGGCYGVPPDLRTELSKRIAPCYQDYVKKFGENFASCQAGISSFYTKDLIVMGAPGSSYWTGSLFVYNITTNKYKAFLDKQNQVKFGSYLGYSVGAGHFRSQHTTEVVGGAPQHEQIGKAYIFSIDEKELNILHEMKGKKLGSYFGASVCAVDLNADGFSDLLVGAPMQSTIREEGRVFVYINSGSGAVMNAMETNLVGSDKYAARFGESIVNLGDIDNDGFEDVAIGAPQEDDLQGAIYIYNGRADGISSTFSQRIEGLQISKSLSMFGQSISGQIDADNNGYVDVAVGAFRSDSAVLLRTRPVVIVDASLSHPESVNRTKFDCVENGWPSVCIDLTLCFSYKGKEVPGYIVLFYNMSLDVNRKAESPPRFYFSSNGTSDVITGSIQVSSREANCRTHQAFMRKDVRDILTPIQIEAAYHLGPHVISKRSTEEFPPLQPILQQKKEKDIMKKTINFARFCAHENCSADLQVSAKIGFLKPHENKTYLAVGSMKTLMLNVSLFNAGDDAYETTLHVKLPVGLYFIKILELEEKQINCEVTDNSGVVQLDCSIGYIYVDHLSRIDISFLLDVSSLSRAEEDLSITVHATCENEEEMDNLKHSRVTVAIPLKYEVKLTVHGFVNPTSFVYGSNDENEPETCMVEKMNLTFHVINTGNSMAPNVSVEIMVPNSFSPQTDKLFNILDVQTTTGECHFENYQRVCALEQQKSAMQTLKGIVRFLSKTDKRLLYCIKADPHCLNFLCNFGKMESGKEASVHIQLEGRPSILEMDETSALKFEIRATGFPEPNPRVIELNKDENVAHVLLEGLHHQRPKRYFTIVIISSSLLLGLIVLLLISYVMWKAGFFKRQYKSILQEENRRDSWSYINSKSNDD
T1 sequence (P26010 20-798): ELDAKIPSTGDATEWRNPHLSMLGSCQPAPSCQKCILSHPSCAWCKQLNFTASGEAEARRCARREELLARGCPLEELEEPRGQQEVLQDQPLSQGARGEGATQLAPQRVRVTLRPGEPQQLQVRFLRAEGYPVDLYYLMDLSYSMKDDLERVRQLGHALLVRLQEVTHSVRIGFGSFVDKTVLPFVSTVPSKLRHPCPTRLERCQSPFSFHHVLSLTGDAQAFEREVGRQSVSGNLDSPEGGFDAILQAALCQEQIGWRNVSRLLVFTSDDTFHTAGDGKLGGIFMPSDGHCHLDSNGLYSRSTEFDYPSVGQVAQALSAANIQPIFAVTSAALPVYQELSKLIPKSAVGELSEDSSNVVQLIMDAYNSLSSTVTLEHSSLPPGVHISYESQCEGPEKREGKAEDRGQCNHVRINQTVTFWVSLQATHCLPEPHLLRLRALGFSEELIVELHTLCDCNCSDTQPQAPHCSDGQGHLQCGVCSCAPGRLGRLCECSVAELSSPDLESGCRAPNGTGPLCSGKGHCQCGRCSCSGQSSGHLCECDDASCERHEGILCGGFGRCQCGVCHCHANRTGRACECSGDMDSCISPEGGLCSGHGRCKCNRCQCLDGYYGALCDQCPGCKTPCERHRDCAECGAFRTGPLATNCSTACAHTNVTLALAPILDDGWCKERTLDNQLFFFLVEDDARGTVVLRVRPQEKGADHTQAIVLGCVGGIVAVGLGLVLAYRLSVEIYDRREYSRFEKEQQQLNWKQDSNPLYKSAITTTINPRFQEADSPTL
Method: (2) MAdCAM-1/α4β7 Integrin Binding Inhibitory Activity Evaluation Test
Each test substance was measured in terms of an ability to inhibit the MAdCAM-1 binding of a human B cell line, namely, a cell line RPMI-8866, which is known to express α4β7 integrin.
A solution of recombinant mouse MAdCAM-1/Fc (R&D Systems, Inc.) (0.75 μg/mL) diluted with a buffer A (carbonate buffer, pH 9.6) was added in an amount of 50 μL/well to a 96-well microtiter plate, followed by incubation at 4° C. overnight. After the plate was washed with PBS once, 150 μL/well of Block Ace (Snow Brand Milk Products Co., Ltd.) was added, followed by incubation at room temperature for 2 hours. After removal, the plate was washed with PBS once.
Then, 100 μL of the RPMI-8866 cells (2×10^6 cells/mL) and 100 μL of the test substance at each of various concentrations diluted with a binding buffer (DMEM containing 40 mM HEPES, 0.2% BSA, and 4 mM MnCl2) were added on the plate coated with the MAdCAM-1/Fc (5×10^5 cells/well), followed by incubation at 30° C. for 15 to 60 minutes. After the cells were bound to the wells, the plate was washed with PBS to remove unbound cells. A buffer C (PBS containing 1.5% Triton X-100) in an amount 50 μL/well was added to the plate to lyse the bound RPMI-8866 cells. After 30 μL of a substrate buffer (Promega, CytoTox 96 Non-Radioactive Cytotoxicity Assay) was added to 30 μL of the cell lysate, a reaction was allowed to proceed at room temperature in the dark for 30 minutes. After 30 μL of a stop solution (Promega, CytoTox 96 Non-Radioactive Cytotoxicity Assay) was added to each, and then an absorbance at 490 nm was measured using a plate reader. The absorbance obtained here represents a detection result of an activity of lactate dehydrogenase (LDH) eluted in the supernatant of each well, that is, the absorbance is proportional to the number of RPMI-8866 cells bound to the MAdCAM-1 and thus remaining on the plate. The test was performed in duplicate. Provided that the absorbance of the well containing no test substance was 100%, a cell binding rate with the test substance at each of the various concentrations was figured out, and a concentration IC50 which brought about 50% binding inhibition was calculated.

`Cc1cn(C)c(=O)n(-c2ccc(C[C@H](NC(=O)c3cc(F)c(NS(=O)(=O)c4ccc(NC(=O)C(C)(C)C(F)(F)F)cc4)cc3F)C(=O)O)cn2)c1=O` [Compound A58] and `Cn1cc(C(F)(F)F)c(=O)n(-c2ccc(C[C@H](NC(=O)c3cc(F)c(NS(=O)(=O)c4ccc(NC(=O)C(C)(C)C)cc4)cc3F)C(=O)O)cn2)c1=O` [Compound A67] are within 1.5-fold of each other in IC50: 1.3 nM for the first, 1.9 nM for the second.

`Cn1ccc(=O)n(-c2ccc(C[C@H](NC(=O)c3cc(F)c(NS(=O)(=O)c4ccc(NC(=O)C5(C#N)CC5)cc4)cc3F)C(=O)O)cn2)c1=O` [Compound A59] and `Cc1cn(C)c(=O)n(-c2ccc(C[C@H](NC(=O)c3cc(F)c(NS(=O)(=O)c4ccc(NC(=O)C5(C#N)CC5)cc4)cc3F)C(=O)O)cn2)c1=O` [Compound A60] are within 1.5-fold of each other in IC50: 3.3 nM for the first, 2.3 nM for the second.

`CCC(CC)C(=O)Nc1ccc(S(=O)(=O)Nc2cc(F)c(C(=O)N[C@@H](Cc3ccc(-n4c(=O)ccn(C)c4=O)nc3)C(=O)O)cc2F)cc1` [Compound A61] and `Cn1ccc(=O)n(-c2ccc(C[C@H](NC(=O)c3cc(F)c(NS(=O)(=O)c4ccc(NC(=O)C(C)(C)CO)cc4)cc3F)C(=O)O)cn2)c1=O` [Compound A62] are within 1.5-fold of each other in IC50: 6.9 nM for the first, 4.9 nM for the second.

`Cc1cn(C)c(=O)n(-c2ccc(C[C@H](NC(=O)c3cc(F)c(NS(=O)(=O)c4ccc(NC(=O)C(C)(C)CO)cc4)cc3F)C(=O)O)cn2)c1=O` [Compound A63] and `Cc1cn(C)c(=O)n(-c2ccc(C[C@H](NC(=O)c3cc(F)c(NS(=O)(=O)c4ccc(NC(=O)C(C)C)cc4)cc3F)C(=O)O)cn2)c1=O` [Compound A71] are within 1.5-fold of each other in IC50: 2.4 nM for the first, 3.2 nM for the second.

First: Cn1ccc(=O)n(-c2ccc(C[C@H](NC(=O)c3cc(F)c(NS(=O)(=O)c4ccc(NC(=O)C5CCCC5)cc4)cc3F)C(=O)O)cn2)c1=O [Compound A64]
Second: Cc1cn(C)c(=O)n(-c2ccc(C[C@H](NC(=O)c3cc(F)c(NS(=O)(=O)c4ccc(NC(=O)C5CCCC5)cc4)cc3F)C(=O)O)cn2)c1=O [Compound A65]
The IC50 of the first is 1.7-fold higher: 5.5 nM for the first, 3.3 nM for the second.

First: Cn1c(C(F)(F)F)cc(=O)n(-c2ccc(C[C@H](NC(=O)c3cc(F)c(NS(=O)(=O)c4ccc(NC(=O)C(C)(C)C)cc4)cc3F)C(=O)O)cn2)c1=O [Compound A66]
Second: Cc1cc(=O)n(-c2ccc(C[C@H](NC(=O)c3cc(F)c(NS(=O)(=O)c4ccc(NC(=O)C(C)(C)C)cc4)cc3F)C(=O)O)nc2)c(=O)n1C [Compound A72]
The IC50 of the first is 1.8-fold higher: 3.3 nM for the first, 1.8 nM for the second. The second is the more potent here.

Compared with `Cc1cn(C)c(=O)n(-c2ccc(C[C@H](NC(=O)c3cc(F)c(NS(=O)(=O)c4ccc(NC(=O)C#CC(C)(C)C)cc4)cc3F)C(=O)O)cn2)c1=O` [Compound A68], `Cc1cn(C)c(=O)n(-c2ccc(C[C@H](NC(=O)c3cc(F)c(NS(=O)(=O)c4ccc(NC(=O)C(C)(C)C)cc4)cc3F)C(=O)O)nc2)c1=O` [Compound A69] is 2.8-fold lower in IC50: 5 nM for the first, 1.8 nM for the second.

`Cn1ccc(=O)n(-c2ccc(C[C@H](NC(=O)c3cc(F)c(NS(=O)(=O)c4ccc(NC(=O)C(C)(C)C)cc4)cc3F)C(=O)O)nc2)c1=O` [Compound A70] and `CN1CCC(=O)N(c2ccc(C[C@H](NC(=O)c3cc(F)c(NS(=O)(=O)c4ccc(NC(=O)C(C)(C)C)cc4)cc3F)C(=O)O)cn2)C1=O` [Compound A75, (2S)-2-[2,5-difluoro-4-[(4-pivalamidophenyl)sulfonamide]benzamido]-3-[6-(3-methyl-2,6-dioxotetrahydropyrimidin-1(2H)-yl)pyridin-3-yl]propanoic acid] are within 1.5-fold of each other in IC50: 3.4 nM for the first, 4 nM for the second.

Going from `Cc1cn(C)c(=O)n(-c2ccc(C[C@H](NC(=O)c3cc(F)c(NS(=O)(=O)c4ccc(NC(=O)C(C)(C)C)s4)cc3F)C(=O)O)cn2)c1=O` [Compound A73] to `Cc1cn(C)c(=O)n(-c2ccc(C[C@H](NC(=O)c3cc(F)c(NS(=O)(=O)c4ccc5c(NC(=O)C(C)(C)C)c[nH]c5c4)cc3F)C(=O)O)cn2)c1=O` [Compound A74], the IC50 rises from 2.2 nM to 7.8 nM (3.5-fold). The first is the more potent here.

Compared with `Cc1cn(C)c(=O)n(-c2ccc(C[C@H](NC(=O)c3cc(F)c(NS(=O)(=O)c4cc5cc(NC(=O)C(C)(C)C)ccc5[nH]4)cc3F)C(=O)O)cn2)c1=O` [Compound A76], `Cc1cn(C)c(=O)n(-c2ccc(C[C@H](NC(=O)c3cc(F)c(NS(=O)(=O)c4c[nH]c5cc(NC(=O)C(C)(C)C)ccc45)cc3F)C(=O)O)cn2)c1=O` [Compound A77] is 1.8-fold higher in IC50: 2 nM for the first, 3.6 nM for the second.
